Columns and labels:
[1] = Solubility of carfilzomib as a function of SBECD concentration, pH and temperature; format: physicochemical; conditions: SBECD solutions, citric acid 30 mM, pH 1.5 and pH 3.5, 5° C. and 25° C., 24 hours to equilibrate, FIG. 6
Description: The experiments at acidic conditions below the target pH values and titrated to pH 1.5 or 3.5 using aqueous sodium hydroside solution. Measurements of solubilized concentration were those from samples analyzed after 24 hours of time to equilibrate.

[2] = Slurry complexation of CFZ-API with SBECD and citric acid: dissolved complexed concentration; format: physicochemical
Description: In a 525 L stainless steel jacketed cooled tank controlled to 2° C.-8° C., a suspension of 2.0 kg carfilzomib-API (CFZ-API), 246 kg water for injection (WFI), and 100 kg sulfobutylether beta-cyclodextrin (SBECD) was prepared. Specifically, in the 525 L stainless steel jacketed cooled tank controlled to 2° C.-8° C., 100 kg SBECD was dissolved in 246 kg WFI. The Carfilzomib suspension was then prepared using 2.0 kg of CFZ-API. Mixing was performed using an impeller mixer to maintain suspension of the CFZ-API solids and dissolve the SBECD. In the same vessel, a probe style rotor-stator high shear mixer (homogenizer) was used as well as the low shear impeller. The high shear mixer was operated for approximately 1 hour yielding an even suspension and reduction of particle size for any larger primary particles or agglomerated API. After a suspension was achieved, 1.96 kg of citric acid was added as a 16% aqueous solution. The pH of the solution was then lowered inducing partial solubilization of the CFZ-API followed by and complexation due to the presence of SBECD. Mixing was continued for a further 24 hours with both the impeller and the high shear mixer and a dissolved concentration of CFZ-API of greater than 5.1 mg/mL was achieved. […]

- solubility difference between low and high temperature [1]: No significant differences in solubility
- solubility (physchem): < 10 µg/mL
- effect of higher SBECD concentration on solubility ([2]; FIG. 3): increased the solubility
- dissolved concentration of CFZ-API ([2]; SBECD/WFI suspension plus citric acid, mixing 24 hours, 2-8° C., 400 L batch): greater than 5.1 mg/mL
SMILES: CC(C)C[C@H](NC(=O)[C@H](CCc1ccccc1)NC(=O)CN1CCOCC1)C(=O)N[C@@H](Cc1ccccc1)C(=O)N[C@@H](CC(C)C)C(=O)[C@@]1(C)CO1 [carfilzomib]

Source: patent publication US20130303465A1, “Cylodextrin Complexation Methods for Formulating Peptide Proteasome Inhibitors” (ONYX THERAPEUTICS, INC., priority 2012, published 2013)
